Data as given in US20060270638A1 (Wyeth, priority 2005, published 2006).
Entries after “also recorded” stand apart in the source; their conditions may differ.

Experiments:
[1] = Safety in healthy subjects of the drug interaction study; assay type: in vivo, human (healthy subjects); details: single 25-mg oral warfarin alone, multiple 50-mg IV tigecycline, and combined
Description: (§1) This is an open-label, nonrandomized, inpatient/outpatient, 2-period, 2-treatment study performed with healthy subjects at a single investigational site.

[2] = for plasma concentrations following tigecycline coadministration: versus warfarin 25 mg alone, FIG. 1, FIG. 2; for increase of exposure (AUC): warfarin given with a therapeutic regimen of tigecycline
Method: as §1
The tubes are centrifuged within 15 minutes of collection at approximately 1000 g for about 10 minutes. The separated plasma is then transferred to a watertight, labeled polypropylene tube and stored frozen in an upright position at −70° C. or colder until shipped.
The apparent terminal-phase disposition rate constant (λz) is estimated by a log-linear regression of the last 2 to 5 observed serum concentrations that are determined to be in the log-linear elimination phase by visual inspection. […] The area under the concentration-time curve (AUCT) to the last observable concentration (CT) at time T is calculated by using the log-trapezoidal rule for decreasing concentrations and the linear-trapezoidal rule for increasing concentrations, and the total AUC is estimated by AUC=AUCT+CT/λz. The oral-dose clearance (Cl/F) is calculated as dose/AUC, and the apparent terminal-phase volume of distribution (Vz/F) is estimated as Vz/F═[Cl/F]/λz.

[3] = Tigecycline steady-state serum pharmacokinetics, alone and with warfarin; assay type: in vivo, human (healthy subjects)
Method: Blood tubes for tigecycline analysis are placed immediately on ice until a clot forms.
Thus, the peak concentration (Cmax) and the time to peak concentration (tmax) are taken directly from the observed data. […] Systemic clearance (Cl) is calculated as dose/AUC, and it is presented both corrected and uncorrected for body weight.

[4] = test system: international normalized ratio (INR); details: in vivo; cited from earlier work
[5] = single 25-mg oral dose of warfarin, Mean ± SD
[6] = combination versus warfarin alone

CC(=O)CC(c1ccccc1)c1c(O)c2ccccc2oc1=O (racemic) [Warfarin, 3-(α-acetonylbenzyl)-4-hydroxycoumarin]
safety-related concerns [1]: No safety-related concerns
R-warfarin AUC ([2]; human, in vivo, po): 73000 ± 18000 ng·h/mL
R-warfarin Cl/F ([2]; human, in vivo, po): 0.0717 ± 0.013 mL/min/kg
S-warfarin AUC ([2]; human, in vivo, po): 47000 ± 18000 ng·h/mL
S-warfarin Cl/F ([2]; human, in vivo, po): 0.117 ± 0.0317 mL/min/kg
INR AUC0-[…] (prothrombin time (INR); [5]): 216 ± 14 h
INRmax (prothrombin time (INR); [5]): 1.8 ± 0.3
tmax (time to maximum INR value) (prothrombin time (INR); [5]): 1800 ± 540 min

CC(=O)C[C@H](c1ccccc1)c1c(O)c2ccccc2oc1=O [R-warfarin]
plasma concentrations following tigecycline coadministration [2]: higher
increase of exposure (AUC) [2]: 68%

CC(=O)C[C@@H](c1ccccc1)c1c(O)c2ccccc2oc1=O [S-warfarin]
plasma concentrations following tigecycline coadministration [2]: higher
increase of exposure (AUC) [2]: 29%

CN(C)c1cc(NC(=O)CNC(C)(C)C)c(O)c2c1C[C@H]1C[C@H]3[C@H](N(C)C)C(O)=C(C(N)=O)C(=O)[C@@]3(O)C(O)=C1C2=O [Tigecycline, (4S,4aS,5aR,12aS)-9-[2-(tert-butylamino)acetamido]-4,7-bis(dimethylamino)-1,4,4a,5,5a,6,11,12a-octahydro-3,10,12,12a-tetrahydroxy-1,11-dioxo-2-naphthacenecarboxamide]
mean steady-state systemic clearance and exposure (Cmax, C12h, AUC) versus monotherapy mean values ([3]; following coadministration of warfarin): ≤ 10%
Tmax ([3]; human, intravenous, 50 mg, tigecycline in serum, steady state, Mean ± SD): 30 min
AUC(0-t) ([3]; human, intravenous, 50 mg, tigecycline in serum, steady state, Mean ± SD, read-out: AUC0-12 h): 2100 ± 514 ng·h/mL
concentration at 12 h ([3]; human, intravenous, 50 mg, tigecycline in serum, steady state, Mean ± SD, read-out: C12 h): 109 ± 28 ng/mL
Cmax ([3]; human, tigecycline in serum, steady state, 50 mg IV every 12 h, Mean ± SD): 886 ± 202 ng/mL
systemic clearance ([3]; tigecycline intravenous clearance, steady state, Mean ± SD): 5.17 ± 1.2 mL/min/kg
safety-related concerns [1]: No safety-related concerns
effect on oral-dose clearance of R-warfarin and S-warfarin ([2]; coadministration of the therapeutic regimen of tigecycline): significantly decreased
mean INR AUC0-[…] following the combination treatment (prothrombin time (INR); [6]): unchanged
mean INRmax lower following the combination treatment (prothrombin time (INR); [6]): 10%
effect on warfarin's anticoagulant profile (measured by INR) (prothrombin time (INR); therapeutic regimen of tigecycline with warfarin): does not significantly alter; also recorded: did not significantly alter

CN(C)c1ccc(O)c2c1C[C@H]1C[C@H]3[C@H](N(C)C)C(O)=C(C(N)=O)C(=O)[C@@]3(O)C(O)=C1C2=O [minocycline]
compatibility with warfarin [4]: demonstrated incompatibility
